Test results: ChEMBL document CHEMBL1201862, “PubChem BioAssay data set” (2004)
The source made the active and inactive calls.

How the values were obtained:
[1] = molecular target: T1, Tyrosine-protein phosphatase non-receptor type 22 (Homo sapiens, UniProt Q9Y2R2); format: functional
[2] = molecular target: T2, Dual specificity protein phosphatase 6 (Rattus norvegicus, UniProt Q64346); test: MKP-3 phosphatase inhibitors, primary screen, biochemical, rat enzyme, in vitro (AID 425)
T2 sequence (Q64346 whole entry): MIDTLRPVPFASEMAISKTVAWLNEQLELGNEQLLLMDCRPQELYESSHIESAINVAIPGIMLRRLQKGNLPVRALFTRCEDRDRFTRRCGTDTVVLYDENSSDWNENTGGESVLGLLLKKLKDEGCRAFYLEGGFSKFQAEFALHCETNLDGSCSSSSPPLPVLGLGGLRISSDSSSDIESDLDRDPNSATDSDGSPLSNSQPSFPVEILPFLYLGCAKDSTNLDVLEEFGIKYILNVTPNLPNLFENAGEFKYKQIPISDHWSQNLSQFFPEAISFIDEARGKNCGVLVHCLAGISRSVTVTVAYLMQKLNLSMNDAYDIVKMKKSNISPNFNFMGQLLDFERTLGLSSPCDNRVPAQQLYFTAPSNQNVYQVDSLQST

[3] = molecular target: T1, Tyrosine-protein phosphatase non-receptor type 22; format: functional; remark: listed apart in the source
[4] = Intein inhibitors as potential Tuberculosis drugs, a cytotoxicity screen. [Related pubchem assays (depositor defined):AID2221, AID2223, AID434968, AID435010, AID449749, AID449750, AID489010]; format: functional
[5] = HepG2 cell cytotoxicity, dose response, cytotoxicity control for Shn3 inhibitor project, CellTiter-Glo, cherry-picked (AID 624134); format: functional, cell-based
Protein RecA = molecular target: T3, Protein RecA (Mycobacterium tuberculosis, UniProt P9WHJ3); test: Fluorescence Cell-Free Homogeneous Dose Retest to Identify Inhibitors of RecA-Intein Splicing Activity. [Related pubchem assays (depositor defined):AID2097, AID2223, AID489010, AID492950]; format: functional
T3 sequence (P9WHJ3 whole entry): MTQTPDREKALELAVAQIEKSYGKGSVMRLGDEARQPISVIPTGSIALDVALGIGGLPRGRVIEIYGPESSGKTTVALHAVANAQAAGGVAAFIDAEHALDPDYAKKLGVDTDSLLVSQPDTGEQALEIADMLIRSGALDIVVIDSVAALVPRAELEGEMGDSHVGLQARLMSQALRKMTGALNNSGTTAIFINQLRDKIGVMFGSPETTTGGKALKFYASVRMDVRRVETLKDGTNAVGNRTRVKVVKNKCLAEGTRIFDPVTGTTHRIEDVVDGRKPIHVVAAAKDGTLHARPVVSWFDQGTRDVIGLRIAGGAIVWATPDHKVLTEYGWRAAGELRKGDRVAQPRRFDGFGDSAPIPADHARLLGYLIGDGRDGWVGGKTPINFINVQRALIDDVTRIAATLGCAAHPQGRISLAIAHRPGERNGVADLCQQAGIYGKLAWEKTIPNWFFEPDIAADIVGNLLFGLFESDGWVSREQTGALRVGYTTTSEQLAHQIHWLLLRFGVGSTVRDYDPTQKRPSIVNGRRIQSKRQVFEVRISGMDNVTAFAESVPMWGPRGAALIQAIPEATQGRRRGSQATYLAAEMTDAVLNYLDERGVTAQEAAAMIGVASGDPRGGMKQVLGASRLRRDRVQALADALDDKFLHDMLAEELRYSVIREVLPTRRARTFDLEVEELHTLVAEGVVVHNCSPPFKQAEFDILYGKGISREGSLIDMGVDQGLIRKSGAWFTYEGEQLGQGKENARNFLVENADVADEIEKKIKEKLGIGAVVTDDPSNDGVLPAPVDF

Cysteine protease ATG4B = molecular target: T4, Cysteine protease ATG4B (Homo sapiens, UniProt Q9Y4P1); format: functional;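 note: Fluorescence-based dose-response confirmation assay measuring inhibition of ATG4B activity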
T4 sequence (Q9Y4P1 whole entry): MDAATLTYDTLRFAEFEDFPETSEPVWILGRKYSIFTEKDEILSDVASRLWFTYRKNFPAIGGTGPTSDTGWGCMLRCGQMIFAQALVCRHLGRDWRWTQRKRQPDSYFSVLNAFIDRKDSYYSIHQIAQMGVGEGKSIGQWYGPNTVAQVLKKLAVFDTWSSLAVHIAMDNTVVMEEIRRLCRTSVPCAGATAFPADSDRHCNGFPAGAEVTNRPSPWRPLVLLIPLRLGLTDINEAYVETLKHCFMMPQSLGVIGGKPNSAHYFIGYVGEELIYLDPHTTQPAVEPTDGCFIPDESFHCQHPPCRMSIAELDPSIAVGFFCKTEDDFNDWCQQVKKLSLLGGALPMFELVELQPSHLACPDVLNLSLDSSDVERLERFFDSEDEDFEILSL

[6] = molecular target: Cyclin-dependent kinase 7 (Homo sapiens, UniProt P50613); format: functional;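 note: value comes from a kinome-wide kinase profiling panel in which CDK7 is one member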
Cyclin-dependent kinase 7, sequence (P50613 whole entry): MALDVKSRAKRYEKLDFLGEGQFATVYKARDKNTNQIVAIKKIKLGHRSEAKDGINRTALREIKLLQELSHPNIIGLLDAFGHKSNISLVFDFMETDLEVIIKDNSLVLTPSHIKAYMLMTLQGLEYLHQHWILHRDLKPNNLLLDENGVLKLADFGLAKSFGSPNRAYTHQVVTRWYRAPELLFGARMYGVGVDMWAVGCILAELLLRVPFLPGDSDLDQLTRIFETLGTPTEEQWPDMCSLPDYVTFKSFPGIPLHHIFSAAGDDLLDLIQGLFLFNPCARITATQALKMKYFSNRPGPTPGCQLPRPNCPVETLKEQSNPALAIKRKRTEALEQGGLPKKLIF

[7] = molecular target: Homeodomain-interacting protein kinase 4 (Homo sapiens, UniProt Q8NE63); format: functional
Homeodomain-interacting protein kinase 4, sequence (Q8NE63 whole entry): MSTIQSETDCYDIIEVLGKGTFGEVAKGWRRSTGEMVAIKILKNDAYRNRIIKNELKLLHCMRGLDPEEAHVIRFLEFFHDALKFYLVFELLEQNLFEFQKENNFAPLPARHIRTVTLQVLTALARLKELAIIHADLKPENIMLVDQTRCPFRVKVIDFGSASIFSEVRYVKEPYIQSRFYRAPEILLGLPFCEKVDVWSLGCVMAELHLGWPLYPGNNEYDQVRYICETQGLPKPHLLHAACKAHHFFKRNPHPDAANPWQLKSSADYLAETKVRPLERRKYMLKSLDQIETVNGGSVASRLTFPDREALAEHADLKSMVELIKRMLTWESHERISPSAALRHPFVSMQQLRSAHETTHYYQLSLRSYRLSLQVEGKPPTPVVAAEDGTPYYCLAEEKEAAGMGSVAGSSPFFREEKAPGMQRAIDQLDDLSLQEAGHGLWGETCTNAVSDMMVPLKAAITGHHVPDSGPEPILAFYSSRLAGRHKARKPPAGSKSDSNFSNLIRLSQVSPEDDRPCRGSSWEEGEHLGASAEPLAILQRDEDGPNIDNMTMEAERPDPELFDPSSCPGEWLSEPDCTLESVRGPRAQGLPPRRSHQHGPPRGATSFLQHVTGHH

[8] = molecular target: Proto-oncogene tyrosine-protein kinase Src (Homo sapiens, UniProt P12931); format: functional;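 note: SRC entry within a kinome-wide kinase profiling panel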
Proto-oncogene tyrosine-protein kinase Src, sequence (P12931 2-536 limits assumed): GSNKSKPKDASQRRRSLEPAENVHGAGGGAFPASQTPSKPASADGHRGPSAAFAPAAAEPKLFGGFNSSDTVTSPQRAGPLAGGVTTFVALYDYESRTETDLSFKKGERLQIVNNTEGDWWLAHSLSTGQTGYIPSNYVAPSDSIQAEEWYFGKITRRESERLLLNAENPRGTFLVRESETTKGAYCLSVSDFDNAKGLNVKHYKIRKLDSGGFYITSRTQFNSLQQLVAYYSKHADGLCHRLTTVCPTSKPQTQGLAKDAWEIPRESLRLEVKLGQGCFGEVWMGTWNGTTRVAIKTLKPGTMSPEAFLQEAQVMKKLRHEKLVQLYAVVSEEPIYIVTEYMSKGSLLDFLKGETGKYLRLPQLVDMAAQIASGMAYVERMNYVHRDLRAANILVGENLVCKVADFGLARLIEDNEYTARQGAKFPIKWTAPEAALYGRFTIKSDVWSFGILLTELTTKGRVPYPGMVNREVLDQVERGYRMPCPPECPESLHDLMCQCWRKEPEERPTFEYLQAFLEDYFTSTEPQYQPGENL

[9] = molecular target: Dual specificity mitogen-activated protein kinase kinase 2 (Homo sapiens, UniProt P36507); test: Navigating the Kinome. Panel member name: MAP2K2; format: functional
Dual specificity mitogen-activated protein kinase kinase 2, sequence (P36507 whole entry): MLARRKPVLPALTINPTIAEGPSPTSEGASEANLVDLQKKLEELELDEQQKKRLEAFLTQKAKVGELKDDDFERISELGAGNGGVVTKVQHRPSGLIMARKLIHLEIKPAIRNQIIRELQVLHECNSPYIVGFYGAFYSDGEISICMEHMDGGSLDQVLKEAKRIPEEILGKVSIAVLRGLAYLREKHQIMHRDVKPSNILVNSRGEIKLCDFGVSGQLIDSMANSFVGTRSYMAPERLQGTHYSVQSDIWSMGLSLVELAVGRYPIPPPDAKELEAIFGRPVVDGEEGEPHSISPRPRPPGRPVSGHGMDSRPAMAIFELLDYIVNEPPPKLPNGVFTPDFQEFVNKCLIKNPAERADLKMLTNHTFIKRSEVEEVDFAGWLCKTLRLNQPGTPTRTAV

[10] = molecular target: Luciferin 4-monooxygenase (Photinus pyralis, UniProt P08659); test: Counter Screen for Luciferase-based Assay Positives. [Related pubchem assays: 620, 618, 411 ]
Luciferin 4-monooxygenase, sequence (P08659 whole entry): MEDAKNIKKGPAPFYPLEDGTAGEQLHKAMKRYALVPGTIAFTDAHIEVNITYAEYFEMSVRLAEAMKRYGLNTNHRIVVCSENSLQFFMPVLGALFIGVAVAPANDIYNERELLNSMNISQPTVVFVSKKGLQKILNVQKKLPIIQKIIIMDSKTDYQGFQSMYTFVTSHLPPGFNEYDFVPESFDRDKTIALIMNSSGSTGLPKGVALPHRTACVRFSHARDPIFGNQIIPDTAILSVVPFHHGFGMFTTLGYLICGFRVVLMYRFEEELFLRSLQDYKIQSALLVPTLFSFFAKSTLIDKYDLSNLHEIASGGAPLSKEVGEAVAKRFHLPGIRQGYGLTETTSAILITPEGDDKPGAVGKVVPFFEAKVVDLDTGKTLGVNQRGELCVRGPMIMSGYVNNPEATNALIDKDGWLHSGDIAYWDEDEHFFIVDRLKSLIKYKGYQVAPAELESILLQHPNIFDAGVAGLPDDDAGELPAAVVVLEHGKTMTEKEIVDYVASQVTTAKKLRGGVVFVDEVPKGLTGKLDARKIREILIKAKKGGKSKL

Cytochrome P450 1A2 = molecular target: T5, Cytochrome P450 1A2 (Homo sapiens, UniProt P05177);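 note: PubChem cytochrome P450 panel assay, CYP1A2 panel member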
T5 sequence (P05177 whole entry): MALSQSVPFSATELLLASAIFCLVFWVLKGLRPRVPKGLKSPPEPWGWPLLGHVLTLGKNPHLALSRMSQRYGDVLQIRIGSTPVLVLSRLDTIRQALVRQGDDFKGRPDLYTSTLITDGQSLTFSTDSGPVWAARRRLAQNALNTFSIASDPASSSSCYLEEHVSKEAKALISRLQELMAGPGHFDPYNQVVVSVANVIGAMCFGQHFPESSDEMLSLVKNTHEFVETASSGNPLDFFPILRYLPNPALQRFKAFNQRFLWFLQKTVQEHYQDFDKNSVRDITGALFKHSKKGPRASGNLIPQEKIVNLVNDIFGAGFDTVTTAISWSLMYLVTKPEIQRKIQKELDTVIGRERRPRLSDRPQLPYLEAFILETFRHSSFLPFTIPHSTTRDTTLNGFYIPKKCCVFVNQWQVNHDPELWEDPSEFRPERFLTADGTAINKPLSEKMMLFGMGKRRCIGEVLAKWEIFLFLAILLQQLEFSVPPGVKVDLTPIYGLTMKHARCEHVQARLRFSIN
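Throughout, for CC50: cells exposed to compound for 72 hours before luminescence readout.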

T1 sequence (Q9Y2R2 whole entry): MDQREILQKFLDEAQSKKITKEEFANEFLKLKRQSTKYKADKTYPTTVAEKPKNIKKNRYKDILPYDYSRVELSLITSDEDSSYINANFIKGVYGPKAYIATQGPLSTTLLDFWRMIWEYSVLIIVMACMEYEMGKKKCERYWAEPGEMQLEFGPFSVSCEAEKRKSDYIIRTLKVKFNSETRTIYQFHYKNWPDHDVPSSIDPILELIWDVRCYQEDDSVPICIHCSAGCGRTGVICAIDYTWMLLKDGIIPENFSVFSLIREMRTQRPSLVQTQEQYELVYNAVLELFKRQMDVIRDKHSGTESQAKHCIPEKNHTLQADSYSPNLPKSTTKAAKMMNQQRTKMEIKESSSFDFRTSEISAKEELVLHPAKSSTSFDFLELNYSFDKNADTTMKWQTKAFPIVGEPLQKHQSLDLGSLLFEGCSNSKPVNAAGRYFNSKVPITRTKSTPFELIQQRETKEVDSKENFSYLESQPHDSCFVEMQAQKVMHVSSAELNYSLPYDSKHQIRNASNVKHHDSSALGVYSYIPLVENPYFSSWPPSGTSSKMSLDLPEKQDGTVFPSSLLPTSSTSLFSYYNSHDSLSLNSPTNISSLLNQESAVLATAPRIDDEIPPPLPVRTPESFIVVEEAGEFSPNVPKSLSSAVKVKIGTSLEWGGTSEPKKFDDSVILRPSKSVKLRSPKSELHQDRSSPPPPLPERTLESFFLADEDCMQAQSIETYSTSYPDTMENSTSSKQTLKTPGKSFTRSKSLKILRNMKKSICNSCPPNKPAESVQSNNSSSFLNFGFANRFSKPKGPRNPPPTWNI

SMILES: CCn1nc(/C=C/c2ccccc2)nc2c(=O)n(C)c(=O)nc1-2
- IC50 [1]: 11.7 µM (active)
- IC50 [2]: < 1.23 µM (not active)
- IC50 [3]: 13 µM (active)
- CC50 [4]: > 40 µM (active)
- AC50 [5]: 12 µM (active)
- EC50 (Protein RecA): 0.0368 µM (active)
- IC50 (Cysteine protease ATG4B): 0.653 µM (active)

SMILES: COc1cc2c(cc1Nc1nc(Nc3cccc(F)c3C(N)=O)c3cc[nH]c3n1)N(C(=O)CN(C)C)CC2
- Ki [6]: 2.51 µM (active)
- Ki [7]: 6.31 µM (active)
- Ki [8]: > 2 µM (inactive)
- Ki [9]: > 3.98 µM (inactive)

SMILES: CC(C)c1ccc(-c2nnn(CCC(=O)O)n2)cc1
- EC50 [10]: 4.77 µM (active)
- AC50 (Cytochrome P450 1A2): 12.6 µM (inconclusive)
